The values that follow come from patent publication US11840686B2, “Modulation of prekallikrein (PKK) expression” (Ionis Pharmaceuticals, Inc., priority 2013, dated 2023).

Strand notation (5' to 3'): a small letter for the sugar, then the base; units joined by * are phosphorothioate-linked, units joined directly phosphodiester-linked; [ ] holds rarer units or linkages, { } end groups; capitals alone tell only the bases. e = 2'-O-(2-methoxyethyl) (MOE); [5mC] = 5-methylcytosine; d = 2'-deoxy (DNA)

The first data set has as its system human PKK mRNA. In words: Antisense inhibition of human PKK mRNA in HepaRG cells, 5,000 nM (Example 2). It counts as cell-based. Conditions: human PKK mRNA in HepaRG cells; 5-10-5 gapmers; Table 14. Summed up: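 Percent inhibition of PKK mRNA is reported relative to untreated cells, after adjustment for total RNA by RIBOGREEN. Gapmers of 16–20 nucleosides with 2′-MOE wings were delivered at 5,000 nM by electroporation into HepaRG cells and left for roughly 24 hours before RNA isolation.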
With “547608 (antisense eT*eA*eT*eA*eA*d[5mC]*dA*dA*dT*dA*dT*d[5mC]*dA*d[5mC]*dT*eG*eT*eA*e[5mC]*e[5mC]) [compound 547608]”, the “% inhibition” value was determined as 35%.
In the case of “547609 (antisense e[5mC]*eT*eA*eT*eA*dA*d[5mC]*dA*dA*dT*dA*dT*d[5mC]*dA*d[5mC]*eT*eG*eT*eA*e[5mC]) [compound 547609]”, the “% inhibition” value stood at 23%.
For “547610 (antisense eT*eG*eT*eA*eA*d[5mC]*dA*dG*dT*dA*dT*d[5mC]*dA*d[5mC]*dT*eG*eT*eA*e[5mC]*eT) [compound 547610]”, the “% inhibition” value is on record as 45%.
As for “547611 (antisense e[5mC]*eT*eG*eT*eA*dA*d[5mC]*dA*dG*dT*dA*dT*d[5mC]*dA*d[5mC]*eT*eG*eT*eA*e[5mC]) [compound 547611]”, the “% inhibition” value stood at 71%.
Same read-out and setting: the same measure for “547612 (antisense e[5mC]*e[5mC]*eT*eG*eT*dA*dA*d[5mC]*dA*dG*dT*dA*dT*d[5mC]*dA*e[5mC]*eT*eG*eT*eA) [compound 547612]”: 68%; for “547613 (antisense e[5mC]*eT*eA*eT*eA*dT*d[5mC]*dA*d[5mC]*dT*dG*dT*dA*d[5mC]*d[5mC]*eT*eG*eT*eA*eA) [compound 547613]”: 39%; for “547614 (antisense e[5mC]*e[5mC]*eT*eA*eT*dA*dT*d[5mC]*dA*d[5mC]*dT*dG*dT*dA*d[5mC]*e[5mC]*eT*eG*eT*eA) [compound 547614]”: 81%.
On the same count and under the same terms, the same measure for “547619 (antisense eT*e[5mC]*e[5mC]*eT*eA*dT*dA*dA*d[5mC]*dA*dG*dT*dA*dT*d[5mC]*eA*e[5mC]*eT*eG*eT) [compound 547619]”: 70%.
Consider “547620 (antisense eT*eT*e[5mC]*e[5mC]*eT*dA*dT*dA*dA*d[5mC]*dA*dG*dT*dA*dT*e[5mC]*eA*e[5mC]*eT*eG) [compound 547620]”, for which the “% inhibition” value is given as 65%.
For the substance “547621 (antisense eT*eA*e[5mC]*eT*eA*dG*dT*dT*dT*d[5mC]*d[5mC]*dT*dA*dT*dA*eA*e[5mC]*eA*eG*eT) [compound 547621]”, the “% inhibition” value was 12%.
On the same count and under the same terms, then “547623 (antisense eT*eG*eT*e[5mC]*eA*d[5mC]*dT*dG*dT*dA*d[5mC]*d[5mC]*dT*dA*dT*eA*eA*e[5mC]*eT*e[5mC]) [compound 547623]”, with 81%; and “547624 (antisense eA*eT*eG*eT*e[5mC]*dA*d[5mC]*dT*dG*dT*dA*d[5mC]*d[5mC]*dT*dA*eT*eA*eA*e[5mC]*eT) [compound 547624]”, with 64%.

The same data set, now with this note: human PKK mRNA, HepaRG cells; 5-10-5 motif oligonucleotides targeting SEQ ID NO: 1 and 10.
As for “547625 (antisense e[5mC]*eA*eG*eT*eA*dT*d[5mC]*dA*d[5mC]*dT*dG*dT*d[5mC]*d[5mC]*dT*eA*eT*eG*eT*e[5mC]) [compound 547625]”, the “% inhibition” value was determined as 79%.
Same read-out and setting: then “547626 (antisense eA*e[5mC]*eA*eG*eT*dA*dT*d[5mC]*dA*d[5mC]*dT*dG*dT*d[5mC]*d[5mC]*eT*eA*eT*eG*eT) [compound 547626]”, with 91%; and “547627 (antisense eT*e[5mC]*eT*eA*e[5mC]*d[5mC]*dT*dA*dT*dA*dA*d[5mC]*dT*d[5mC]*dT*eA*eA*e[5mC]*eA*eG) [compound 547627]”, with 71%.
On the same count and under the same terms, then “547628 (antisense e[5mC]*eT*e[5mC]*eT*eA*d[5mC]*d[5mC]*dT*dA*dT*dA*dA*d[5mC]*dT*d[5mC]*eT*eA*eA*e[5mC]*eA) [compound 547628]”, with 34%; and “547629 (antisense eA*e[5mC]*eT*e[5mC]*eT*dA*d[5mC]*d[5mC]*dT*dA*dT*dA*dA*d[5mC]*dT*e[5mC]*eT*eA*eA*e[5mC]) [compound 547629]”, with 0%; and “547630 (antisense eA*e[5mC]*eT*eG*eT*d[5mC]*d[5mC]*dT*dA*dT*dA*dT*d[5mC]*dA*d[5mC]*eT*e[5mC]*eT*eA*e[5mC]) [compound 547630]”, with 76%.
Same read-out and setting: the same measure for “547631 (antisense e[5mC]*eA*e[5mC]*eT*eG*dT*d[5mC]*d[5mC]*dT*dA*dT*dA*dT*d[5mC]*dA*e[5mC]*eT*e[5mC]*eT*eA) [compound 547631]”: 85%; for “547634 (antisense eA*eT*e[5mC]*eA*e[5mC]*dT*dG*dT*dA*d[5mC]*dT*dA*dG*dT*dT*eT*eT*e[5mC]*eT*eA) [compound 547634]”: 72%; for “547635 (eT*eA*eT*e[5mC]*eA*d[5mC]*dT*dG*dT*dA*d[5mC]*dT*dA*dG*dT*eT*eT*eT*e[5mC]*eT; antisense) [compound 547635]”: 53%.
On to “547638 (eA*eT*eA*eA*e[5mC]*dA*dG*dT*dA*dT*d[5mC]*dA*d[5mC]*dT*dG*eT*eA*e[5mC]*eT*eA; antisense) [compound 547638]”, for which the “% inhibition” value was determined as 87%.
Same read-out and setting: then “547639 (eG*eT*e[5mC]*e[5mC]*eT*dA*dT*dA*dA*d[5mC]*dT*dA*dT*dA*dA*e[5mC]*eA*eG*eT*eA; antisense) [compound 547639]”, with 72%; and “547640 (eT*eG*eT*e[5mC]*e[5mC]*dT*dA*dT*dA*dA*d[5mC]*dT*dA*dT*dA*eA*e[5mC]*eA*eG*eT; antisense) [compound 547640]”, with 13%; and “547641 (e[5mC]*eT*eG*eT*e[5mC]*d[5mC]*dT*dA*dT*dA*dA*d[5mC]*dT*dA*dT*eA*eA*e[5mC]*eA*eG; antisense) [compound 547641]”, with 43%.
On the same count and under the same terms, the same measure for “547642 (eT*e[5mC]*eA*e[5mC]*eT*dG*dT*d[5mC]*d[5mC]*dT*dA*dT*dA*dA*d[5mC]*eT*eA*eT*eA*eA; antisense) [compound 547642]”: 72%.
On to “547643 (eA*eT*e[5mC]*eA*e[5mC]*dT*dG*dT*d[5mC]*d[5mC]*dT*dA*dT*dA*dA*e[5mC]*eT*eA*eT*eA; antisense) [compound 547643]”, for which the “% inhibition” value amounted to 72%.
With “547644 (eT*eA*eT*e[5mC]*eA*d[5mC]*dT*dG*dT*d[5mC]*d[5mC]*dT*dA*dT*dA*eA*e[5mC]*eT*eA*eT; antisense) [compound 547644]”, the “% inhibition” value is 51%.
On the same count and under the same terms, the same measure for “547645 (eA*eT*eA*eT*e[5mC]*dA*d[5mC]*dT*dG*dT*d[5mC]*d[5mC]*dT*dA*dT*eA*eA*e[5mC]*eT*eA; antisense) [compound 547645]”: 60%; for “547646 (e[5mC]*eT*eA*eT*eA*dT*d[5mC]*dA*d[5mC]*dT*dG*dT*dA*d[5mC]*d[5mC]*eT*eA*eT*eA*eA; antisense) [compound 547646]”: 23%; for “547648 (e[5mC]*e[5mC]*eT*eA*eT*dA*dA*d[5mC]*dA*dG*dT*dA*dT*d[5mC]*dA*e[5mC]*eT*eG*eT*eA; antisense) [compound 547648]”: 83%.
“547649 (eA*e[5mC]*e[5mC]*eT*eA*dT*dA*dA*d[5mC]*dA*dG*dT*dA*dT*d[5mC]*eA*e[5mC]*eT*eG*eT; antisense) [compound 547649]”: the “% inhibition” value amounted to 73%.
Turning to “547650 (eG*eT*eA*e[5mC]*e[5mC]*dT*dA*dT*dA*dA*d[5mC]*dA*dG*dT*dA*eT*e[5mC]*eA*e[5mC]*eT; antisense) [compound 547650]”, the “% inhibition” value was 32%.
